Assay results published in patent publication EP0993306B1, “PERFLUOROALKYLATED OLIGOMER COMPOUNDS, PROCESS FOR PREPARING THE SAME AND THEIR USE IN NMR DIAGNOSIS” (SCHERING AKTIENGESELLSCHAFT, priority 1997, dated 1999).

Legend:
[1] = T1 relaxivity in human plasma (Minispec pc 20); format: physicochemical; details: for R^1 (T^1-Relaxivity): 0.47 T, 20 MHz, 37 °C, Humanplasma, normalised to one metal atom
[2] = Lymph node accumulation in stimulated guinea pigs after s.c. administration (ICP-AES); format: in vivo, Meerschweinchen; details: 10 µmol/kg s.c. hind paw, MW ± SD, n=3
From the text: Die erfindungsgemäßen Verbindungen erfüllen alle Voraussetzungen, die von Kontrastmitteln in der indirekten NMR-Lymphographie verlangt werden: gute lokale Verträglichkeit, rascher Abtransport vom Injektionsort, rasche und weitestgehend vollständige Ausscheidung aus dem Gesamtorganismus. Ferner zeigen sie eine hohe Anreicherung über mehrere Lymphknotenstationen und erlauben damit relevante diagnostische Aussagen. So konnte am Meerschweinchenmodell eine hohe Anreicherung über mehrere Lymphknotenstationen (popliteal, inguinal, iliakal) nach s.c. Gabe (2,5-10 µmol/kg Körpergewicht, Injektion in Zwischenzehenräume der Hinterpfote) gezeigt werden. In besonders geeigneten Fällen wurden so in der zweiten (inguinal) und dritten (iliakal) Station noch Gadoliniumkonzentrationen von jeweils ≥ 200 bzw. ≥ 300 µmol/l erhalten. Üblicherweise sind mit den erfindungsgemäßen Verbindungen Lymphknotenkonzentrationen bis zu 1000 µmol/l zu erhalten.
Der Gadolinium-Komplex des Beispiels 19 wurde 30 Min./ 90 Min. nach subkutaner Gabe (10 µmol Gesamtgadolinium/kg KG, Hinterpfote s.c.) an stimulierten Meerschweinchen (komplettes Freund-Adjuvant; jeweils 0,1 ml i.m. in den rechten und linken Ober- und Unterschenkel; 2 Wochen vor Gabe der Prüfsubstanz) hinsichtlich ihrer Lymphknotenanreicherung in drei aufeinanderfolgenden Lymphknotenstationen (popliteal, inguinal, iliakal) untersucht. Hierbei wurden die nachfolgend aufgelisteten Ergebnisse (Ermittlung der Gadolinium-Konzentration mittels ICP-AES) erhalten: […]

[3] = Excretion after s.c. administration: metal retention in liver, kidneys, spleen; format: in vivo, Meerschweinchen; details: 10 µmol/kg interstitial, MW ± SD, n=2
From the text: Nach subkutaner Gabe von 10 µmol Gesamtgadolinium (Beispiel 19) /kg Körpergewicht in die Hinterpfote des Meerschweines wurde 7 Tage nach Applikation die Retention des Metalls in der Leber, in den Nieren sowie in der Milz untersucht.

[4] = Retention of the contrast metal at the injection site (paw); format: in vivo, Meerschweinchen; details: 10 µmol/kg interstitial, MW ± SD, n=3
From the text: Nach s.c. Gabe von 10 µmol Gesamtgadolinium (Beispiel 19)/kg Körpergewicht in die Meerschweinchenpfote wurde die Retention des Metalls am Injektionsort zu verschiedenen Zeitpunkten untersucht.

[5] = rat, in vivo, iv, 100 umol/kg
From the text: Hierfür wurde nach einmaliger intravenöser Applikation (via einer Caudalvene) der Substanzen (Dosis: ≈ 100 µmol Metall pro kg Körpergewicht) die Substanzkonzentration im Blut (basierend auf dem Gd- bzw. Dy-Gehalt) über einen Zeitraum bis zu 120 Minuten p. i. mittels ICP-AES bestimmt. Die pharmakokinetischen Parameter: Verteilungsvolumen (Vss), Gesamtclearance (CLtot) und Eliminationshalbwertszeit (tb) wurden mit einem speziellen Computerprogramm (TOPFIT 2.0; Thomae, Schering, Gödecke) berechnet, wobei ein Zwei-Kompartment-Distributionsmodell zu Grunde gelegt wurde.
Die Gd- und Dy-Gehalte im Blut wurden mittels ICP-AES bestimmt.
Hierfür wurde nach einmaliger intravenöser Applikation (via einer Caudalvene) der Substanzen (Dosis: ≈ 100 µmol Metall pro kg Körpergewicht) die Substanzkonzentration im Blut (basierend auf dem Metallgehalt) über einen Zeitraum bis zu 120 Minuten p. i. mittels ICP-AES bestimmt. Die pharmakokinetischen Parameter: Verteilungsvolumen (Vss), Gesamtclearance (CLtot) und Eliminationshalbwertszeit (tb) wurden mit einem speziellen Computerprogramm (TOPFIT 2.0; Thomae, Schering, Gödecke) berechnet, wobei ein Zwei-Kompartment-Distributionsmodell zu Grunde gelegt wurde.

[6] = 39 °C, 0,47 T; cited from earlier work
[7] = Diffusibility: in vivo comparison with an intravasal and an extracellular contrast agent, ligated renal vessels; details: i.v. 20 µmol/kg each, ligated renal vessels, relative to Verbindung 2 set as 100 %
Description: (§1) Als Versuchstiere dienten drei 250 g schwere, männliche (Schering-SPF-) Ratten. Den Tieren wurden die Nierengefäße abgebunden, um eine renale Eliminierung zu verhindern und bei angenommener vernachlässigbarer faekaler Eliminierung ein Maß für Diffusibilität der erfindungsgemäßen Formulierung aus dem Blut in das umgebende Gewebe zu erhalten. Je Tier wurden 0.5 ml (jeweils 10 mmol/L) der folgenden Kontrastmittel-Lösung intravenös appliziert: Gemisch aus je 1 Teil der Verbindung des Beispiels 1g, im folgenden Verbindung 1 genannt, des intravasalen Kontrastmittels Eu-DTPA-Albumin, im folgenden Verbindung 2 genannt, und des extrazellulären Kontrastmittels Dy-DTPA, im folgenden Verbindung 3 genannt. Über einen Katheter in der Arteria carotis communis wurden Blutproben zu folgenden Zeitpunkten entnommen: 15, 30, 45, 60, 90 sec, 3, 5, 10, 15 min p.i. In den gewonnenen Blutproben wurden jeweils parallel die Konzentrationen an Gadolinium (Gd), Europium (Eu) und Dysprosium (Dy) mittels Atomemissionsspektrometrie (ICP-AES) gemessen. Der im Blutraum verbliebene Anteil des intravasalen Kontrastmittels Verbindung 2 (Eu) wurde als 100 % gesetzt. Der im Blutraum verbliebene Anteil der erfindungsgemäßen Formulierung Verbindung 1 (Gd) und der Verbindung 3 (Dy, extrazelluläre Vergleichssubstanz) konnte durch die unterschiedliche Markierung im gleichen Tier verglichen werden und wurde prozentual ins Verhältnis zur Konzentration der Verbindung 2 gesetzt. Damit liefern diese Daten Angaben über den Verbleib der Verbindungen im Intravasalraum.

[8] = as above; set-up: species or system Ratte; details: i.v. 20 µmol/kg each, relative to Verbindung 2 set as 100 %
Description: as §1

Molecule: 1,4,7-Tris(N-3,3,6-tris(carboxylatomethyl)-6-[N-3-aza-2,5-dioxo-pentan-1,5-diyl]-3,6,9-triazaundecan-1,11-disäure, Gd-Komplex, Mononatriumsalz}-10-2H,2H,4H,4H,5H,5H-3-oxa-perfluor-tridecanoyl)-1,4,7,10-tetraazacyclododecan [Beispiel 8 b)]
- R^1 (T^1-Relaxivity) [1]: 20,6 L/mmol * sec

Molecule: 1,4,7-Tris{1,4,7-tris-(N-carboxylatomethyl)-10-[N-(4,7-diaza-3,6,9-trioxo)-nonan-2,9-diyl]-1,4,7,10-tetraazacyclododecan, Gd-Komplex-10-(N-22F,22F,22F,21F,21F, 20F,20F,19F, 19F, 18F, 18F, 17F,17F, 16F, 16F, 15F, 15F-heptadecafluor-12-oxadocosanoyl)-1,4,7,10-tetraazacyclododecan [Beispiel 14 e)]
- R^1 (T^1-Relaxivity) [1]: 19,3 L/mmol * sec

Molecule: 1,4,7-Tris{N-3,9-bis(carboxylatomethyl)-6-[N-3-aza-2,5-dioxo-pentan-1,5-diyl]-3,6,9-triazaundecan-1-carboxylato-11-säure, Gd-Komplex, Natriumsalz}-10-[Nacetyl-(2-amino-N-ethyl-N-perfluoroctylsulfonyl)]-1,4,7,10-tetraazacyclododecan [Beispiel 18 d)]
- R^1 (T^1-Relaxivity) [1]: 23,0 L/mmol * sec

Molecule: 1,4,7-Tris{N-[3,9-bis{N-carboxylatomethyl)]-6-[N-{3-aza-2,5-dioxo-pentan)-1,5-diyl]-3,6,9-triazaundecan-1-carboxylato-11-säure, Gd-Komplex, Mononatriumsalz}-10-N-{undecanoyl-〈11-amino-N-[acetyl-(2-amino-N-ethyl-N-perfluoroctylsulfonyl)]) }-1,4,7,10-tetraazacyclododecan [Beispiel 25 f)]
- R^1 (T^1-Relaxivity) [1]: 15,1 L/mmol * sec

Molecule: 1,4,7-Tris{N-hexanoyl-2,6-bis〈*amino-N-acetyl-2-[3,9-bis(N-carboxylato-methyl)-6-yl-3,6,9-triazaundecan-1-carboxylato-11-säure, Gd-Komplex, Mononatriumsalz]〉}-10-[N-acetyl-(2-amino-N-ethyl-N-perfluoroctylsulfonyl)]-1,4,7,10-tetraazacyclododecan [Beispiel 26 d)]
- R^1 (T^1-Relaxivity) [1]: 13,0 L/mmol * sec

Molecule: 1,4,7-Tris{N-hexanoyl-2,6-bis〈amino-N-acetyl-2-[aminopropanoyl-(2-yl)]-[1,4,7-tris(Ncarboxylatomethyl)-1,4,7,10-tetraazacyclododecan-10-yl, Gd-Komplex]〉}-10-[N-acetyl-(2-amino-N-ethyl-N-perfluoroctylsulfonyl)]-1,4,7,10-tetraazacyclododecan [Beispiel 27]
- R^1 (T^1-Relaxivity) [1]: 16,1 L/mmol * sec

Molecule: CCN(CC(=O)N1CCN(C(=O)CNC(=O)CNC(=O)C(C)N2CCN(CC(=O)[O-])CCN(CC(=O)[O-])CCN(CC(=O)[O-])CC2)CCN(C(=O)CNC(=O)CNC(=O)C(C)N2CCN(CC(=O)[O-])CCN(CC(=O)[O-])CCN(CC(=O)[O-])CC2)CCN(C(=O)CNC(=O)CNC(=O)C(C)N2CCN(CC(=O)[O-])CCN(CC(=O)[O-])CCN(CC(=O)[O-])CC2)CC1)S(=O)(=O)C(F)(F)C(F)(F)C(F)(F)C(F)(F)C(F)(F)C(F)(F)C(F)(F)C(F)(F)F.[Gd+3].[Gd+3].[Gd+3] (centres unmarked) [Beispiel 19, 1,4,7-Tris{1,4,7-tris(N-carboxylatomethyl)-10-[N-(4,7-diaza-3,6,9-trioxo)-nonan-2,9-diyl]-1,4,7,10-tetraazacyclododecan, Gd-Komplex}-10-[N-acetyl-(2-amino-N-ethyl-N-perfluor-octylsulfonyl)]-1,4,7,10-tetraazacyclododecan]
- Gd-Konzentration, Blut ([2]; 30 min p.i.): 24 ± 3 µmol/L
- Gd-Konzentration, Lymphknoten iliakal ([2]; 30 min p.i.): 50 ± 18 µmol/L
- Gd-Konzentration, Lymphknoten inguinal profund ([2]; 30 min p.i.): 43 ± 41 µmol/L
- Gd-Konzentration, Lymphknoten popliteal ([2]; 30 min p.i.): 345 ± 319 µmol/L
- Gd-Konzentration, Urin ([2]; 30 min p.i.): 261 ± 167 µmol/L
- Gd-Konzentration, Blut ([2]; 90 min p.i.): 25 ± 4 µmol/L
- Gd-Konzentration, Lymphknoten iliakal ([2]; 90 min p.i.): 20 ± 8 µmol/L
- Gd-Konzentration, Lymphknoten inguinal profund ([2]; 90 min p.i.): 9 ± 2 µmol/L
- Gd-Konzentration, Lymphknoten popliteal ([2]; 90 min p.i.): 75 ± 20 µmol/L
- Gd-Konzentration, Urin ([2]; 90 min p.i.): 348 ± 119 µmol/L
- R^1 (T^1-Relaxivity) [1]: 21,4 L/mmol * sec
- Relaxivity (r1, Plasma) ([1]; plasma): ≈ 19.5 1*mmol^- ^1*s^-1
- Gadolinium-Gehalt in den Organen 7 d p.i., Leber [3]: 0.09 ± 0.09 % Dosis
- Gadolinium-Gehalt in den Organen 7 d p.i., Milz [3]: 0.00 ± 0.01 % Dosis
- Gadolinium-Gehalt in den Organen 7 d p.i., Nieren [3]: 0.06 ± 0.04 % Dosis
- Gadolinium-Konzentration an der Injektionsstelle (Pfote) ([4]; 30 min p.i.): 48,4 ± 10,4 % Dosis
- Gadolinium-Konzentration an der Injektionsstelle (Pfote) ([4]; 90 min p.i.): 8,0 ± 1,7 % Dosis
- Gadolinium-Konzentration an der Injektionsstelle (Pfote) ([4]; 7 d p.i.): 0,7 ± 0,6 % Dosis
- CL tot [5]: 0.94 mL/min/kg
- Vss [5]: 0.12 L/kg

Molecule: C[NH2+]C[C@@H](O)[C@@H](O)[C@H](O)[C@@H](O)CO.C[NH2+]C[C@@H](O)[C@@H](O)[C@H](O)[C@@H](O)CO.O=C([O-])CN(CCN(CC(=O)[O-])CC(=O)[O-])CCN(CC(=O)[O-])CC(=O)[O-].[Gd+3] [Magnevist ®, Di-N-methylglucaminsalz des Gd-DTPA-Komplexes, reference compound]
- T^1-Relaxivity [6]: 3,5 - 4,9 mM^-1 · sec^-1
- R^1 (T^1-Relaxivity) [1]: 4,8 L/mmol * sec

Molecule: CNC(=O)CN(CCN(CCN(CC(=O)[O-])CC(=O)NC)CC(=O)[O-])CC(=O)[O-].[Gd+3] [Omniscan®]
- T^1-Relaxivity [6]: 3,5 - 4,9 mM^-1 · sec^-1

Molecule: CC(O)CN1CCN(CC(=O)[O-])CCN(CC(=O)[O-])CCN(CC(=O)[O-])CC1.[Gd+3] (centres unmarked) [Pro Hance®]
- T^1-Relaxivity [6]: 3,5 - 4,9 mM^-1 · sec^-1

Molecule: Dy-DTPA [reference compound]
- Prozentsatz der im Blutraum verbliebenen Dosis ([7]; 30 sec p.i.): 48%
- Prozentsatz der im Blutraum verbliebenen Dosis ([7]; 3 min p.i.): 25%
- Prozentsatz der im Blutraum verbliebenen Dosis ([7]; 10 min p.i.): 21%
- Vss [5]: 0.17 L/kg

Molecule: Gadolinium-III-Komplex des 1,4,7,10-Tetracarboxymethyl-1,4,7,10-tetraazacyclododecans [Dotarem®]
- T^1-Relaxivity [6]: 3,5 - 4,9 mM^-1 · sec^-1

Molecule: Verbindung 2: intravasales Kontrastmittel Eu-DTPA-Albumin
- Prozentsatz der im Blutraum verbliebenen Dosis ([8]; 30 sec p.i.): 100%
- Prozentsatz der im Blutraum verbliebenen Dosis ([8]; 3 min p.i.): 100%
- Prozentsatz der im Blutraum verbliebenen Dosis ([8]; 10 min p.i.): 100%
